Reference: PubChem BioAssay (NCI)
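These data come from cells grown in 96-well plates and exposed to compound for 48 hours at five concentrations. Here, GI50 denotes the concentration required for 50% inhibition of growth. TGI denotes the concentration required for complete inhibition of growth.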

Columns and labels:
Experiment in all cases: NCI tumour cell line growth inhibition, 48 h
[1] = system: HOP-62 NSCLC
[2] = system: NCI-H522 lung
[3] = system: SK-OV-3 ovarian
[4] = system: SK-MEL-28 melanoma
[5] = system: OVCAR-3 ovarian
[6] = system: U251 CNS
[7] = system: RXF 393 renal
[8] = system: HCC-2998 colon
[9] = system: LXFL 529 NSCLC
[10] = system: NCI-H23 lung
[11] = system: SF-268 CNS
[12] = system: KM20L2 colon
[13] = system: IGROV1 ovarian
[14] = system: A498 renal
[15] = system: SNB-75 CNS
[16] = system: SNB-78 CNS
[17] = system: NCI-H460 lung
[18] = system: LOX IMVI melanoma
[19] = system: COLO 205 colon
[20] = system: 786-0 renal
[21] = system: ACHN renal
[22] = system: K-562 leukemia
[23] = system: MOLT-4 leukemia
[24] = system: OVCAR-4 ovarian
[25] = system: OVCAR-5 ovarian
[26] = system: RPMI-8226 leukemia
[27] = system: SW-620 colon
[28] = system: TK-10 renal
[29] = system: A549 NSCLC
[30] = system: HCT-15 colon
[31] = system: CCRF-CEM leukemia
[32] = system: UACC-257 melanoma
[33] = system: UO-31 renal
[34] = system: SF-539 CNS
[35] = system: DMS 114 small cell lung
[36] = system: SNB-19 CNS
[37] = system: UACC-62 melanoma
[38] = system: OVCAR-8 ovarian
[39] = system: DLD-1 colon
[40] = system: KM12 colon
[41] = system: M14 melanoma
[42] = system: MALME-3M melanoma
[43] = system: HCT-116 colon
[44] = system: SK-MEL-2 melanoma
[45] = system: CAKI-1 renal
[46] = system: DMS 273 small cell lung
[47] = system: SK-MEL-5 melanoma
[48] = system: EKVX NSCLC
[49] = system: HOP-92 NSCLC
[50] = system: M19-MEL melanoma
[51] = system: XF 498 CNS
[52] = system: SN12C renal
[53] = system: HT29 colon
[54] = system: SF-295 CNS
[55] = system: HL-60(TB) leukemia
[56] = system: SR leukemia
[57] = system: NCI-H226 lung

In the case of `CCOc1ccc(NC(=O)/C(Cc2nc3ccccc3[nH]c2=O)=N\O)cc1`, the TGI [1] is reported as > 100 µM, the TGI [2] is reported as > 100 µM and the TGI [3] is reported as > 100 µM. The TGI [4] was > 100 µM, the TGI [5] was > 100 µM and the TGI [6] was > 100 µM. For the same compound, the TGI [7] was > 100 µM, the TGI [8] was > 100 µM and the TGI [9] was > 100 µM. For the same compound, the TGI [10] was > 100 µM, the TGI [11] was > 100 µM and the TGI [12] was > 100 µM. For the same compound, the TGI [13] was > 100 µM, the TGI [14] was > 100 µM and the TGI [15] was > 100 µM. For the same compound, the TGI [16] was > 100 µM, the TGI [17] was > 100 µM and the TGI [18] was > 100 µM. The TGI [19] was > 100 µM, the TGI [20] was > 100 µM and the TGI [21] was > 100 µM. The TGI [22] was > 100 µM, the TGI [23] was > 100 µM and the TGI [24] was > 100 µM. For the same compound, the TGI [25] was > 100 µM, the TGI [26] was > 100 µM and the TGI [27] was > 100 µM. The TGI [28] was > 100 µM, the TGI [29] was > 100 µM and the TGI [30] was > 100 µM. For the same compound, the TGI [31] was > 100 µM, the TGI [32] was > 100 µM and the TGI [33] was > 100 µM. For the same compound, the TGI [34] was > 100 µM, the TGI [35] was > 100 µM and the TGI [36] was > 100 µM. For the same compound, the TGI [37] was > 100 µM, the TGI [38] was > 100 µM and the TGI [39] was > 100 µM. The TGI [40] was > 100 µM, the TGI [41] was > 100 µM and the TGI [42] was > 100 µM. For the same compound, the TGI [43] was > 100 µM, the TGI [44] was > 100 µM and the TGI [45] was > 100 µM. For the same compound, the TGI [46] was > 100 µM, the TGI [47] was > 100 µM and the TGI [48] was > 100 µM. The TGI [49] was > 100 µM and the TGI [50] was > 100 µM.
In the case of `[O-]c1ccccc1[C-]=Nc1ccccc1O.[O-]c1ccccc1[C-]=Nc1ccccc1O.[O]=[U]=[O]`, the GI50 [1] is reported as 19.9 µM, the TGI [1] is reported as 57.4 µM and the GI50 [2] is reported as 4.01 µM. The TGI [2] was 51.8 µM, the GI50 [3] was 43 µM and the TGI [3] was 71 µM. For the same compound, the GI50 [4] was 14 µM, the TGI [4] was 35.9 µM and the GI50 [5] was 4.13 µM. It also gave a TGI [5] of 29.5 µM, a GI50 [6] of 11.6 µM and a TGI [6] of 33.6 µM. It also gave a GI50 [7] of 20.1 µM, a TGI [7] of 45.5 µM and a GI50 [9] of 4.11 µM. The TGI [9] was 34.8 µM, the GI50 [10] was 11.3 µM and the TGI [10] was 76.5 µM. It also gave a GI50 [11] of 11.3 µM, a TGI [11] of 58.1 µM and a GI50 [12] of 0.856 µM. For the same compound, the TGI [12] was > 100 µM, the GI50 [51] was 20 µM and the TGI [51] was 42 µM. It also gave a GI50 [13] of 21.8 µM, a TGI [13] of 71 µM and a GI50 [14] of 22.8 µM. It also gave a TGI [14] of 46.6 µM, a GI50 [15] of 25.1 µM and a TGI [15] of 64.5 µM. It also gave a GI50 [16] of 21.3 µM, a TGI [16] of 61.2 µM and a GI50 [17] of 14.5 µM. It also gave a TGI [17] of 41.2 µM, a GI50 [18] of 9.82 µM and a TGI [18] of 68 µM. It also gave a GI50 [19] of 19 µM, a TGI [19] of 51.6 µM and a GI50 [20] of 13.1 µM. The TGI [20] was 35.9 µM, the GI50 [21] was 9.09 µM and the TGI [21] was 26.7 µM. The GI50 [22] was 2.79 µM, the TGI [22] was > 100 µM and the GI50 [23] was 2.95 µM. The TGI [23] was 65 µM, the GI50 [52] was 10 µM and the TGI [52] was 35.4 µM. The GI50 [24] was 12.1 µM, the TGI [24] was 46.8 µM and the GI50 [25] was 21 µM. For the same compound, the TGI [25] was > 100 µM, the GI50 [26] was 1.59 µM and the TGI [26] was 49.5 µM. It also gave a GI50 [27] of 12.2 µM, a TGI [27] of 74.5 µM and a GI50 [53] of 16 µM. For the same compound, the TGI [53] was 95.3 µM, the GI50 [28] was 28.9 µM and the TGI [28] was 55.5 µM. The GI50 [29] was 16.2 µM, the TGI [29] was 43.9 µM and the GI50 [30] was 3.56 µM. The TGI [30] was 36.3 µM, the GI50 [31] was 2.6 µM and the TGI [31] was 44.4 µM. For the same compound, the GI50 [32] was 3.9 µM, the TGI [32] was 26.3 µM and the GI50 [35] was 2.4 µM. It also gave a TGI [35] of 23.2 µM, a GI50 [54] of 16.4 µM and a TGI [54] of 43.5 µM. For the same compound, the GI50 [37] was 10.4 µM, the TGI [37] was 31.1 µM and the GI50 [38] was 14.8 µM. The TGI [38] was 66.7 µM, the GI50 [55] was 1.76 µM and the TGI [55] was 7.47 µM. It also gave a GI50 [39] of 2.23 µM, a TGI [39] of 41 µM and a GI50 [40] of 6.35 µM. For the same compound, the TGI [40] was > 100 µM, the GI50 [41] was 10.2 µM and the TGI [41] was 41.7 µM. The GI50 [42] was 12.8 µM, the TGI [42] was 30.1 µM and the GI50 [44] was 13.2 µM. The TGI [44] was 37.3 µM, the GI50 [45] was 12.5 µM and the TGI [45] was 37.3 µM. It also gave a GI50 [46] of 13.7 µM, a TGI [46] of 59.5 µM and a GI50 [47] of 8.38 µM. The TGI [47] was 43 µM, the GI50 [48] was 24 µM and the TGI [48] was 62.4 µM. The GI50 [49] was 8.4 µM, the TGI [49] was 35.2 µM and the GI50 [50] was 12.3 µM. The TGI [50] was 48.6 µM.
With `COc1cc(C(=O)O)cc2c1[nH]c1ccccc12` the TGI [1] was > 25 µM, the TGI [2] was > 25 µM and the TGI [3] was > 25 µM. The TGI [4] was > 25 µM, the TGI [56] was > 25 µM and the TGI [5] was > 25 µM. The TGI [6] was > 25 µM, the TGI [8] was > 25 µM and the TGI [9] was > 25 µM. The TGI [11] was > 25 µM, the TGI [12] was > 25 µM and the TGI [13] was > 25 µM. The TGI [16] was > 25 µM, the TGI [57] was > 25 µM and the TGI [17] was > 25 µM. The TGI [18] was > 25 µM, the TGI [19] was > 25 µM and the TGI [20] was > 25 µM. The TGI [21] was > 25 µM, the TGI [22] was > 25 µM and the TGI [23] was > 25 µM. For the same compound, the TGI [52] was > 25 µM, the TGI [24] was > 25 µM and the TGI [25] was > 25 µM. For the same compound, the TGI [26] was > 25 µM, the TGI [27] was > 25 µM and the TGI [53] was > 25 µM. For the same compound, the TGI [28] was > 25 µM, the TGI [29] was > 25 µM and the TGI [30] was > 25 µM. The TGI [31] was > 25 µM, the TGI [33] was > 25 µM and the TGI [34] was > 25 µM. The TGI [35] was > 25 µM, the TGI [36] was > 25 µM and the TGI [37] was > 25 µM. For the same compound, the TGI [38] was > 25 µM, the TGI [55] was > 25 µM and the TGI [39] was > 25 µM. For the same compound, the TGI [40] was > 25 µM, the TGI [41] was > 25 µM and the TGI [42] was > 25 µM. For the same compound, the TGI [43] was > 25 µM, the TGI [44] was > 25 µM and the TGI [46] was > 25 µM. For the same compound, the TGI [47] was > 25 µM, the TGI [49] was > 25 µM and the TGI [50] was > 25 µM.
